7 compounds from patent US12398098B2, “Waterborne crosslinker composition” (priority 2020, dated 2025) can be followed below.

The structures appear in SMILES notation. Where two headings read alike, the source gives them in different places.

Data set [1] relates to mouse embryonic stem (mES) reporter cell lines.
The subject of data set [2] is Rtkn. The following applies: mouse.
A further data set concerns Bscl2. The experiment in a line: ToxTracker genotoxicity assay, Bscl2-GFP reporter.
The subject of data set [3] is Rtkn. Put plainly: ToxTracker genotoxicity assay, Rtkn-GFP reporter.
The mark [4] stands for this setting: With S9 rat liver extract, at 50% cytotoxicity, 3 h exposure and 24 h recovery.
[5] abbreviates: With S9 rat liver extract, at 25% cytotoxicity, 3 h exposure and 24 h recovery.
[6] abbreviates: Without S9 rat liver extract, at 10% cytotoxicity, 24 h exposure.
The mark [7] stands for this setting: Without S9 rat liver extract, at 25% cytotoxicity, 24 h exposure.
Setting [8] is: Without S9 rat liver extract, at 50% cytotoxicity, 24 h exposure.
[9] abbreviates: With S9 rat liver extract, at 10% cytotoxicity, 3 h exposure and 24 h recovery.
Setting [10] is: Bscl2 and Rtkn, absence and presence of S9.

Turning to `CCC(COC(=O)CCN1CC1C)(COC(=O)CCN1CC1C)COC(=O)CCN1CC1C` (centres unmarked) [Comp. Ex. 1, trimethylolpropane tris(2-methyl aziridinepropionate), reference compound], in data set [1], the “Genotoxicity test result (overall)” value is given as “genotoxic”.
Regarding `CCCCOCC(CN1CC1C)OC(=O)NCCCCCCn1c(=O)n(CCCCCCNC(=O)OC(COCCCC)CN2CC2C)c(=O)n(CCCCCCNC(=O)OC(COCCCC)CN2CC2C)c1=O` (centres unmarked) [Composition 1], the “Rtkn GFP reporter induction level” value was determined as 0.9 with Rtkn [2]; 0.8 in the data set with Rtkn [3] (setting [5]); 0.6 in the data set on Rtkn [3] (setting [4]); 0.8 in the data set with Rtkn [3] (setting [6]); 0.8 in the data set with Rtkn [3] (setting [7]); 0.6 in the data set on Rtkn [3] (setting [8]). Besides, in the data set on Bscl2 (setting [4]), the “Bscl 2 GFP reporter induction level” value was found to be 0.9. Also, in data set [1], the “Genotoxicity test result (overall)” value was “non-genotoxic”.
Regarding `CC(CN1CC1C)OC(=O)NCCCCCCn1c(=O)n(CCCCCCNC(=O)OC(C)CN2CC2C)c(=O)n(CCCCCCNC(=O)OC(C)CN2CC2C)c1=O` (centres unmarked) [Composition 16], the “Bscl 2 GFP reporter induction level” value worked out at 1.2 with Bscl2 (setting [9]); 1.3 with Bscl2 (setting [5]); 1.2 with Bscl2 (setting [4]); 1.2 in the data set on Bscl2 (setting [6]); 1.3 with Bscl2 (setting [7]); 1.3 in the data set with Bscl2 (setting [8]). Also, the “Genotoxicity test result (overall)” value in data set [1] was “non-genotoxic”. For the same compound, the “Rtkn GFP reporter induction level” value was found to be 1.2 with Rtkn [3] (setting [9]); 1.1 in the data set on Rtkn [3] (setting [5]); 0.9 in the data set with Rtkn [3] (setting [4]); 1.2 in the data set on Rtkn [3] (setting [6]); 1.2 in the data set with Rtkn [3] (setting [7]); 1.4 in the data set on Rtkn [3] (setting [8]).
As to `CCCCC(CC)COCC(CN1CC1C)OC(=O)NCCCCCCn1c(=O)n(CCCCCCNC(=O)OC(COCC(CC)CCCC)CN2CC2C)c(=O)n(CCCCCCNC(=O)OC(COCC(CC)CCCC)CN2CC2C)c1=O` (centres unmarked) [Composition 23], the “Genotoxicity test result (overall)” value in data set [1] (setting [10]) was “non-genotoxic”.
In the case of `CCCCCCCCCC(=O)OCC(CN1CC1C)OC(=O)NCCCCCCn1c(=O)n(CCCCCCNC(=O)OC(COC(=O)CCCCCCCCC)CN2CC2C)c(=O)n(CCCCCCNC(=O)OC(COC(=O)CCCCCCCCC)CN2CC2C)c1=O` (centres unmarked) [Composition 25-2], the “Bscl 2 GFP reporter induction level” value in the data set on Bscl2 (setting [9]) is listed as 1.0; in the data set on Bscl2 (setting [5]), 1.1; in the data set with Bscl2 (setting [4]), 1.1; with Bscl2 (setting [6]), 1.1; with Bscl2 (setting [7]), 1.2; with Bscl2 (setting [8]) it was 1.0. The “Genotoxicity test result (overall)” value in data set [1] (setting [10]) is listed as “non-genotoxic”. The “Rtkn GFP reporter induction level” value with Rtkn [3] (setting [9]) stood at 1.1; in the data set with Rtkn [3] (setting [5]) it was 1.1; with Rtkn [3] (setting [4]), 1.2; in the data set on Rtkn [3] (setting [6]), 1.1; in the data set on Rtkn [3] (setting [7]) it was 1.2; with Rtkn [3] (setting [8]), 1.0.
Consider `CCCCOCC(CN1CC1C)OC(=O)NCCCCCC/N=c1\oc(=O)n(CCCCCCNC(=O)OC(COCCCC)CN2CC2C)c(=O)n1CCCCCCNC(=O)OC(COCCCC)CN1CC1C` (centres unmarked) [Composition 27], for which the “Genotoxicity test result (overall)” value in data set [1] (setting [10]) is “non-genotoxic”.
Consider `CCCCOCC(CN1CC1(C)C)OC(=O)NCCCCCCn1c(=O)n(CCCCCCNC(=O)OC(COCCCC)CN2CC2(C)C)c(=O)n(CCCCCCNC(=O)OC(COCCCC)CN2CC2(C)C)c1=O` (centres unmarked) [Compound. 15], for which the “Bscl 2 GFP reporter induction level” value was 1.1 with Bscl2 (setting [9]); 1.1 in the data set on Bscl2 (setting [5]); 1.1 in the data set with Bscl2 (setting [4]); 1.2 in the data set with Bscl2 (setting [6]); 1.2 in the data set on Bscl2 (setting [7]); 1.1 in the data set on Bscl2 (setting [8]). For the same compound, the “Genotoxicity test result (overall)” value in data set [1] is listed as “non-genotoxic”. Also, the “Rtkn GFP reporter induction level” value in the data set on Rtkn [3] (setting [9]) is recorded as 1.2; in the data set on Rtkn [3] (setting [5]) it was 1.2; in the data set on Rtkn [3] (setting [4]), 1.3; in the data set on Rtkn [3] (setting [6]), 1.2; in the data set with Rtkn [3] (setting [7]), 1.2; in the data set with Rtkn [3] (setting [8]), 1.2.
